# Key:
# [1] = test system: barnyardgrass (Echinochloa crus-galli); experiment: Test A preemergence, barnyardgrass; type: in vivo; conditions: Echinochloa crus-galli, pre-emergence, 240 h, Preemergence
# In short: (§1)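 Formulated with a surfactant in a non-phytotoxic solvent, compounds are applied to loam–sand pots, either to bare soil immediately after seeding (preemergence) or to seedlings of 2 to 10 cm bearing one to two leaves (postemergence).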
# [2] = test system: pigweed (Amaranthus retroflexus); experiment: Test A preemergence, pigweed; type: in vivo; conditions: Amaranthus retroflexus, pre-emergence, 240 h
# In short: (§2)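 Preemergence: pigweed seeds in loam soil–sand blend received a directed soil spray of test chemicals in a non-phytotoxic solvent with surfactant. Postemergence: barnyardgrass, wheat and galium in pots of the same soil, 2 to 10 cm tall at one- to two-leaf stage, sprayed with the same formulation.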
# [3] = test system: Foxtail, Giant (giant foxtail, Setaria faberi); experiment: Test A postemergence, Foxtail, Giant; type: in vivo; conditions: Setaria faberi, post-emergence, 240 h, Postemergence, 0 to 100 scale (0 no effect, 100 complete control)
# In short: as §1
# [4] = test system: barnyardgrass (Echinochloa crus-galli); experiment: Test A postemergence, barnyardgrass; type: in vivo; conditions: Echinochloa crus-galli, post-emergence, 240 h, Postemergence, 0 to 100 scale (0 no effect, 100 complete control)
# In short: as §2
structure (smiles),measurement,setting,value
"Cc1c(NS(=O)(=O)C(F)(F)F)cc(C(=O)N(C)C)c(C)c1F [Compound 128, 3-Fluoro-N,N,2,4-tetramethyl-5-[[(trifluoromethyl)sulfonyl]amino]benzamide]",melting point,,243 to 245 °C
same,pest or weed control at 125 g/ha,"[1]; 125 g ai/ha, visual injury on 0 to 100 scale (0 no effect, 100 complete control), approximately 10 days, read-out: Barnyardgrass plant response rating",100%
same,pest or weed control at 500 g/ha,"[1]; 500 g ai/ha, 0 to 100 scale (0 no effect, 100 complete control), read-out: Plant response rating, Barnyardgrass",100%
same,pest or weed control at 125 g/ha,"[2]; 125 g ai/ha, visual injury on 0 to 100 scale (0 no effect, 100 complete control), approximately 10 days, read-out: Pigweed plant response rating",100%
same,pest or weed control at 500 g/ha,"[2]; 500 g ai/ha, 0 to 100 scale (0 no effect, 100 complete control), read-out: Plant response rating, Pigweed",100%
same,pest or weed control at 125 g/ha,"[3]; 125 g ai/ha, visual injury approx. 10 days, read-out: Plant response rating, Foxtail, Giant",10%
same,pest or weed control at 500 g/ha,"[3]; 500 g ai/ha, visual injury vs untreated controls after approx. 10 days, read-out: Foxtail, Giant plant response rating",50%
same,pest or weed control at 125 g/ha,"[4]; 125 g ai/ha, visual injury approx. 10 days, read-out: Plant response rating, Barnyardgrass",50%
same,pest or weed control at 500 g/ha,"[4]; 500 g ai/ha, visual injury vs untreated controls after approx. 10 days, read-out: Barnyardgrass plant response rating",90%

# — patent US20230278972A1, “SUBSTITUTED HALOALKYL SULFONANILIDE HERBICIDES” (FMC Corporation, priority 2020, published 2023)
